The values that follow are results of earlier work, collected in patent US7449194B2, “Antimicrobial body covering articles” (priority 2002, dated 2008).

The conditions of the data set: in water; 21° C.

Consider `[O][Cl+][O-]` [chlorine dioxide], for which the partition coefficient is 40.
